In patent US11999716B2, “WDR5 inhibitors and modulators” (priority 2018, dated 2024):

These molecules were tested on MV4:11 human cancer cell lines (assay: Cellular viability / anti-proliferative activity, CellTiter-Glo, 5 day protocol). Conditions: Homo sapiens, MV4-11, 120 h, MV4:11 cells; 5 day incubation; CellTiter-Glo; mean of minimum two replicates; read-out: GI50 on cellular proliferation of MV4:11 human cancer cell lines.
Assay type: cell-based
In short: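 Cells seeded at 200 per well (7200 cells/mL) with compound in 2-fold serial dilutions from 30 μM top (22 points), 0.3% DMSO final. Viability read by CellTiter-Glo luminescence after 5 days; GI50 from sigmoidal dose-response fit, mean of at least two replicates.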

Question: How did the GI50 turn out when `Cc1ccnc([C@@H](C2CC2)N2CCc3c(cc(Cn4ccn(C)c4=N)cc3-c3ccc(F)cc3C)C2=O)c1` [Example 33, (R)-2-(Cyclopropyl(4-methylpyridin-2-yl)methyl)-5-(4-fluoro-2-methylphenyl)-7-((2-imino-3-methyl-2,3-dihydro-1H-imidazol-1-yl)methyl)-3,4-dihydroisoquinolin-1(2H)-one] was run?
Answer: 553 nM

Question: How did the GI50 turn out when `Cc1cnc(CN2CCc3c(cc(Cn4ccnc4C)cc3-c3cn(C)nc3C(F)(F)F)C2=O)s1` [Example 195, 7-((2-Methyl-1H-imidazol-1-yl)methyl)-5-(1-methyl-3-(trifluoromethyl)-1H-pyrazol-4-yl)-2-((5-methylthiazol-2-yl)methyl)-3,4-dihydroisoquinolin-1(2H)-one] was run?
Answer: 217 nM

Question: For `Cn1cc(-c2cc(Cn3ccoc3=N)cc3c2CCN(Cc2cc(C4CC4)nn2C)C3=O)c(C(F)(F)F)n1` [Example 150, 2-((3-Cyclopropyl-1-methyl-1H-pyrazol-5-yl)methyl)-7-((2-iminooxazol-3(2H)-yl)methyl)-5-(1-methyl-3-(trifluoromethyl)-1H-pyrazol-4-yl)-3,4-dihydroisoquinolin-1(2H)-one], which GI50 is on record?
Answer: < 50 nM

Question: How did the GI50 turn out when `COc1cc(CN2CCc3c(cc(Cn4ccn(C)c4=N)cc3-c3cccnc3C(F)(F)F)C2=O)cc(OC)c1` [Example 35, 2-(3,5-Dimethoxybenzyl)-7-((2-imino-3-methyl-2,3-dihydro-1H-imidazol-1-yl)methyl)-5-(2-(trifluoromethyl)pyridin-3-yl)-3,4-dihydroisoquinolin-1(2H)-one] was run?
Answer: 143 nM

Question: Which GI50 does the source give for `COc1cc(CN2CCc3c(cc(Cn4cnn(C)c4=N)cc3-c3ncc(F)cc3C)C2=O)cc(OC)c1` [Example 124, 2-(3,5-Dimethoxybenzyl)-5-(5-fluoro-3-methylpyridin-2-yl)-7-((5-imino-1-methyl-1,5-dihydro-4H-1,2,4-triazol-4-yl)methyl)-3,4-dihydroisoquinolin-1(2H)-one] here?
Answer: 935 nM

Question: Which GI50 does the source give for `COc1ccnc(CN2CCc3c(cc(CNc4nnc5ccccn45)cc3-c3cn(C)nc3C(F)(F)F)C2=O)c1` [Example 135, 7-(([1,2,4]Triazolo[4,3-a]pyridin-3-ylamino)methyl)-2-((4-methoxypyridin-2-yl)methyl)-5-(1-methyl-3-(trifluoromethyl)-1H-pyrazol-4-yl)-3,4-dihydroisoquinolin-1(2H)-one] here?
Answer: > 938 nM

Question: With `COc1ccnc(CN2Cc3c(cc(Cn4ccn(C)c4=N)cc3C3CC3)C2=O)c1` [Example 136, 4-Cyclopropyl-6-((2-imino-3-methyl-2,3-dihydro-1H-imidazol-1-yl)methyl)-2-((4-methoxypyridin-2-yl)methyl)isoindolin-1-one] as the molecule, how does the GI50 read?
Answer: > 938 nM

Question: `Cc1nccn1Cc1cc2c(c(-c3cn(C)nc3C(F)(F)F)c1)CCN(Cc1cc(Br)cc3[nH]ccc13)C2=O` [Example 236, 2-((6-Bromo-1H-indol-4-yl)methyl)-7-((2-methyl-1H-imidazol-1-yl)methyl)-5-(1-methyl-3-(trifluoromethyl)-1H-pyrazol-4-yl)-3,4-dihydroisoquinolin-1(2H)-one] was tested. Which GI50 did it give?
Answer: 121 nM

Question: Which GI50 does the source give for `Cc1cnc(Cl)c(CN2CCc3c(cc(Cn4ccnc4C)cc3-c3cn(C)nc3C(F)(F)F)C2=O)c1` [Example 223, 2-((2-Chloro-5-methylpyridin-3-yl)methyl)-7-((2-methyl-1H-imidazol-1-yl)methyl)-5-(1-methyl-3-(trifluoromethyl)-1H-pyrazol-4-yl)-3,4-dihydroisoquinolin-1(2H)-one] here?
Answer: < 50 nM

Question: How did the GI50 turn out when `CCc1ccnc(CN2CCc3c(cc(Cn4cc(C)nc4C)cc3-c3cn(CC)nc3C(F)(F)F)C2=O)c1` [Example 22, 7-((2,4-Dimethyl-1H-imidazol-1-yl)methyl)-5-(1-ethyl-3-(trifluoromethyl)-1H-pyrazol-4-yl)-2-((4-ethylpyridin-2-yl)methyl)-3,4-dihydroisoquinolin-1(2H)-one] was run?
Answer: 145 nM
